Reference: the kinase profiling compilation of Christmann-Franck et al. (2016)

Experiments:
Assay in all cases: radiometric filter-binding kinase assay, Kinase HotSpot
Details in all cases: compound 0.5 µM; ATP 10 µM
[1] = biological target: ABL2 (human) (UniProt P42684)
[2] = biological target: ACVRL1 (human) (UniProt P37023)
[3] = biological target: AKT1 (human) (UniProt P31749)
[4] = biological target: AURKB (human) (UniProt Q96GD4)
[5] = biological target: BRSK2 (human) (UniProt Q8IWQ3)
[6] = biological target: CDK1 CCNA2 (human) (UniProt P06493+P20248)
[7] = biological target: CDK2 CCNA2 (human) (UniProt P24941+P20248)
[8] = biological target: CDK4 CCND1 (human) (UniProt P24385+P11802)
[9] = biological target: CHEK2 (human) (UniProt O96017)
[10] = biological target: CSK (human) (UniProt P41240)
[11] = biological target: CSNK1E (human) (UniProt P49674)
[12] = biological target: CSNK1G2 (human) (UniProt P78368)
[13] = biological target: EPHA2 (human) (UniProt P29317)
[14] = biological target: EPHB1 (human) (UniProt P54762)
[15] = biological target: FLT3 (human) (UniProt P36888)
[16] = biological target: FRK (human) (UniProt P42685)
[17] = biological target: GRK6 (human) (UniProt P43250)
[18] = biological target: GSG2 (human) (UniProt Q8TF76)
[19] = biological target: HIPK4 (human) (UniProt Q8NE63)
[20] = biological target: IGF1R (human) (UniProt P08069)
[21] = biological target: KIT (human) (UniProt P10721)
[22] = biological target: LCK (human) (UniProt P06239)
[23] = biological target: MAP4K2 (human) (UniProt Q12851)
[24] = biological target: MAPKAPK2 (human) (UniProt P49137)
[25] = biological target: MARK1 (human) (UniProt Q9P0L2)
[26] = biological target: MARK3 (human) (UniProt P27448)
[27] = biological target: MINK1 (human) (UniProt Q8N4C8)
[28] = biological target: MKNK2 (human) (UniProt Q9HBH9)
[29] = biological target: NEK4 (human) (UniProt P51957)
[30] = biological target: NTRK2 (human) (UniProt Q16620)
[31] = biological target: NUAK2 (human) (UniProt Q9H093)
[32] = biological target: OXSR1 (human) (UniProt O95747)
[33] = biological target: PIM1 (human) (UniProt P11309)
[34] = biological target: PIM3 (human) (UniProt Q86V86)
[35] = biological target: PRKCB1 (human) (UniProt P05771)
[36] = biological target: PRKD1 (human) (UniProt Q15139)
[37] = biological target: RPS6KA3 KD1 KD2 (human) (UniProt P51812)
[38] = biological target: STK17A (human) (UniProt Q9UEE5)
[39] = biological target: STK39 (human) (UniProt Q9UEW8)
[40] = biological target: TAOK3 (human) (UniProt Q9H2K8)
[41] = biological target: TYK2 JH1 catalytic (human) (UniProt P29597)

Chain of CSNK1E (human) (P49674 whole entry, looked up): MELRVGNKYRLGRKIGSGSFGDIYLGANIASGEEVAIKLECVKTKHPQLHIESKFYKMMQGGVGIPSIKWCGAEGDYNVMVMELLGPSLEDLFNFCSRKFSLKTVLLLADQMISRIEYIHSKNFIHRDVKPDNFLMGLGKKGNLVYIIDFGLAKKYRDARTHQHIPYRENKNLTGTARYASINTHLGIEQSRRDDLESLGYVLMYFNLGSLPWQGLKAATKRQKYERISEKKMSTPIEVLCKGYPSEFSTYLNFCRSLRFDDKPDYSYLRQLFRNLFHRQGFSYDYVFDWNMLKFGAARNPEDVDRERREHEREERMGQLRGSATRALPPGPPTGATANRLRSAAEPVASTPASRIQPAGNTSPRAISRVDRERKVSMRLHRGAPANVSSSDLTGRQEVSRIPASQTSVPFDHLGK
Chain of MARK1 (human) (Q9P0L2 whole entry, looked up): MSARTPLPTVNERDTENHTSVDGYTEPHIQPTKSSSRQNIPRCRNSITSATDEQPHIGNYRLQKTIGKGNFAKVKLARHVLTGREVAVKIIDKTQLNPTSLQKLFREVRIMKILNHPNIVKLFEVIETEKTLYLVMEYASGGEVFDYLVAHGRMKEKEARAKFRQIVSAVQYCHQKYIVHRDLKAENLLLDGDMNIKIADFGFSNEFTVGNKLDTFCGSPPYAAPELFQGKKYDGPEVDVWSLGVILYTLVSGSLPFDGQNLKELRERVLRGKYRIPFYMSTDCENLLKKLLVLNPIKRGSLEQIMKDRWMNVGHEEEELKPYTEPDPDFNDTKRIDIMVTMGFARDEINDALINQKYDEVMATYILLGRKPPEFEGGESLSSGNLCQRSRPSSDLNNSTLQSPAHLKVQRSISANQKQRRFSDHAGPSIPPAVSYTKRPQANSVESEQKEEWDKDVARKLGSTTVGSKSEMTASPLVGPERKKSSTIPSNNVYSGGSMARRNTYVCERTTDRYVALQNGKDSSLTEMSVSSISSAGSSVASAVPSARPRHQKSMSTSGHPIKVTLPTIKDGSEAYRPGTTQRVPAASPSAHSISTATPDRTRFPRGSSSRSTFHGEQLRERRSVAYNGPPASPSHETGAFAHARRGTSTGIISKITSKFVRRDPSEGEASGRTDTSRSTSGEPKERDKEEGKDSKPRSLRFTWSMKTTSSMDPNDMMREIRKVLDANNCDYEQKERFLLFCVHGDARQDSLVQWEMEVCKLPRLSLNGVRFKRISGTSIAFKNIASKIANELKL
Chain of STK17A (human) (Q9UEE5 whole entry, looked up): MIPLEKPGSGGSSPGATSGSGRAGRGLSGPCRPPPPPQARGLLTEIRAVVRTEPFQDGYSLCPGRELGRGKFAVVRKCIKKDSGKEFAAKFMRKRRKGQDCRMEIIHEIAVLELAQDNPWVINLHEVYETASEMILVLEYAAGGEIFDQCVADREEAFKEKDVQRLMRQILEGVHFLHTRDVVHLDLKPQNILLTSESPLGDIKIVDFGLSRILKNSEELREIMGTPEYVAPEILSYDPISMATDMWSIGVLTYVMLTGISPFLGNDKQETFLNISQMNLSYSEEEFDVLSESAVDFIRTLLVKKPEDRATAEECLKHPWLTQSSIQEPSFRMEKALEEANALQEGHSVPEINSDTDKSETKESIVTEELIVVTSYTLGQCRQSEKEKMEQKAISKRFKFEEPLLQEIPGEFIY
Chain of CDK4 CCND1 (human) (P11802 whole entry, looked up): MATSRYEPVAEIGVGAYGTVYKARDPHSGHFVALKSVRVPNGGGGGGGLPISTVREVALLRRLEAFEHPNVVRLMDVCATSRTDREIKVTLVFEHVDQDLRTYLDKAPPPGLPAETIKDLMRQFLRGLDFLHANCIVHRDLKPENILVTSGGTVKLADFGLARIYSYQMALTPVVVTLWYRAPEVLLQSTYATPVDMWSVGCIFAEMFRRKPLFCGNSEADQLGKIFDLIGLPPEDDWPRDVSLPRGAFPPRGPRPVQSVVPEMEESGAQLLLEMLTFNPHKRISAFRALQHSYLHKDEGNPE
Chain of CDK4 CCND1 (human) (P24385 whole entry, looked up): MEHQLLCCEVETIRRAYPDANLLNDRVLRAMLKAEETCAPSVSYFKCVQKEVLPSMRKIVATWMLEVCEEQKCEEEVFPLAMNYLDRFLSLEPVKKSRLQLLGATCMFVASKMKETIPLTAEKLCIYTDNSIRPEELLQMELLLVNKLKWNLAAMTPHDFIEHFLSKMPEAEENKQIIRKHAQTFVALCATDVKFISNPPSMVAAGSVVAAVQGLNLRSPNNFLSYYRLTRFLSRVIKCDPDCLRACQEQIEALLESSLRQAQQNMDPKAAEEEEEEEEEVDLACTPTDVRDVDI
Chain of LCK (human) (P06239 whole entry, looked up): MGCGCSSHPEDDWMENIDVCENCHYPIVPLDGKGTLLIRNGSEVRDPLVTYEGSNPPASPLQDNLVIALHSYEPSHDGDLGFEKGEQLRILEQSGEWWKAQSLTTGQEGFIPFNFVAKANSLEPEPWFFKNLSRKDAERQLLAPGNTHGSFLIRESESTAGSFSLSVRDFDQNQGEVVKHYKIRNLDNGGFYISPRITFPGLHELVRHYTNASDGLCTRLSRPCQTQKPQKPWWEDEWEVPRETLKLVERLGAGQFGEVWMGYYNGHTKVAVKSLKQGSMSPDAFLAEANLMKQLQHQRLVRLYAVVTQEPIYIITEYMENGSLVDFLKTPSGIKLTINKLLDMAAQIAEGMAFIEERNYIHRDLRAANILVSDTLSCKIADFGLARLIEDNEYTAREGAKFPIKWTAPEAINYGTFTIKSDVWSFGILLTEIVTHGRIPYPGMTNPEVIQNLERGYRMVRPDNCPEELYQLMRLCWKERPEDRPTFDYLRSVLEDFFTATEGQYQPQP
Chain of FLT3 (human) (P36888 whole entry, looked up): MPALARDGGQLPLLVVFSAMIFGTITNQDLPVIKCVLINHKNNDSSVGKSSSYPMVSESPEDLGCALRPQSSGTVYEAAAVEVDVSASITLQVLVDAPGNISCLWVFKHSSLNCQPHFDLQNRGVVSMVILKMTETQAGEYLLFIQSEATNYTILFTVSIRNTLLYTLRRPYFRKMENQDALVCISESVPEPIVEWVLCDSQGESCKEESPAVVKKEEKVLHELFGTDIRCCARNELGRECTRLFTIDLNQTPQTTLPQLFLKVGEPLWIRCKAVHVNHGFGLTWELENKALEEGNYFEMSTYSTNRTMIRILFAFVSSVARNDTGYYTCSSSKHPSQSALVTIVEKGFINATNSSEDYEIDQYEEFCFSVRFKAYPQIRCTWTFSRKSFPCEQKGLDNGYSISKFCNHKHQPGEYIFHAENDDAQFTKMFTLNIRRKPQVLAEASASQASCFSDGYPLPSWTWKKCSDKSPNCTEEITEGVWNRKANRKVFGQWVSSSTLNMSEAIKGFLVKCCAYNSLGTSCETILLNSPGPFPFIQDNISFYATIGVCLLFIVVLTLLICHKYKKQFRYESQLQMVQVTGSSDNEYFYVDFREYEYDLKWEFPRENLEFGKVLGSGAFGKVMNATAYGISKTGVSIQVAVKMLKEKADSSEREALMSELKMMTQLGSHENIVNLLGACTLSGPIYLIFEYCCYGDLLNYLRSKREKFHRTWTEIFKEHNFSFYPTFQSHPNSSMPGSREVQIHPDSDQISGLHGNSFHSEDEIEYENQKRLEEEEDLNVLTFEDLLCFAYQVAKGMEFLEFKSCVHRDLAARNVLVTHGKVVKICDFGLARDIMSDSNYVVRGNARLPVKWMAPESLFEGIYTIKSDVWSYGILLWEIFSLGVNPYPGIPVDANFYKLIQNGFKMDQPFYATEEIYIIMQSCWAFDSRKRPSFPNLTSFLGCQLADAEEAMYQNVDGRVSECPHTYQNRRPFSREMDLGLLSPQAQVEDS
Chain of MAP4K2 (human) (Q12851 whole entry, looked up): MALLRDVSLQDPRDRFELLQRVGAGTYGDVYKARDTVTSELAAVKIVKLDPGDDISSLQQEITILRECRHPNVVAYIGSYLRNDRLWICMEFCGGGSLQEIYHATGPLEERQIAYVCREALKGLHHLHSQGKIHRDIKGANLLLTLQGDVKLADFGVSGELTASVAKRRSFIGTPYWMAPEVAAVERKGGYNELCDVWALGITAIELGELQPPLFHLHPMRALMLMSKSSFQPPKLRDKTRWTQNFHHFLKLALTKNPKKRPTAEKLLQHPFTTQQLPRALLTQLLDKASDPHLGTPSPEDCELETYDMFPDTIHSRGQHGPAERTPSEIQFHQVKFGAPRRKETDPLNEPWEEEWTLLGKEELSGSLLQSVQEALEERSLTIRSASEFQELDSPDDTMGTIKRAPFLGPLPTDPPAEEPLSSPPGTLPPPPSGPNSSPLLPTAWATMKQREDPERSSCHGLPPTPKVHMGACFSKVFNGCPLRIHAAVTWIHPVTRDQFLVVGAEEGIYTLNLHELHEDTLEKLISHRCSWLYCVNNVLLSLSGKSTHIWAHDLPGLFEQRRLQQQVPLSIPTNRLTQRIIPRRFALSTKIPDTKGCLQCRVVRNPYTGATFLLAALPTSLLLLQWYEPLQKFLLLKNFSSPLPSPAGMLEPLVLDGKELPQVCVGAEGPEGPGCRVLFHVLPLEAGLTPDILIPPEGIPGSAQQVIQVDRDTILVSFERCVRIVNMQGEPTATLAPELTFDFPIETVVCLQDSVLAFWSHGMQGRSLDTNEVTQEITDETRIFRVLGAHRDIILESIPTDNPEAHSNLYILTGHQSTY
Chain of CSK (human) (P41240 whole entry, looked up): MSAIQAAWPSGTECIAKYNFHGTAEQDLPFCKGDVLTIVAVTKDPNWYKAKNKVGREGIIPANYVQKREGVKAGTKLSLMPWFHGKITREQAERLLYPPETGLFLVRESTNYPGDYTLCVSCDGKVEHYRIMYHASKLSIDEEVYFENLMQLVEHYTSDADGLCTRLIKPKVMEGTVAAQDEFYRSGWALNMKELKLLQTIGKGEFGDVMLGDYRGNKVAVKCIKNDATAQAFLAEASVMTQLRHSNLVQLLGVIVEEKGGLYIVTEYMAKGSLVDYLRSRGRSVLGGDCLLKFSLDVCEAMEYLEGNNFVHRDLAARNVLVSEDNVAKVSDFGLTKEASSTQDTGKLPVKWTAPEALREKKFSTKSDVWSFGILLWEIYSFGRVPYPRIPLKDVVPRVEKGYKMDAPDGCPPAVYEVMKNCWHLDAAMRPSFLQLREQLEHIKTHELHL

## CC(=O)O/N=C1\C(=C2\C(=O)Nc3cc(Br)ccc32)Nc2ccccc21
[1]
  residual activity: 26.4%
[2]
  residual activity: 107%
[3]
  residual activity: 99.6%
[4]
  residual activity: 81%
[5]
  residual activity: 43.4%
[6]
  residual activity: 77.5%
[7]
  residual activity: 22.3%
[8]
  residual activity: 73.3%
[9]
  residual activity: 75.8%
[10]
  residual activity: 75.5%
[11]
  residual activity: 55.8%
[12]
  residual activity: 89.7%
[13]
  residual activity: 95.8%
[14]
  residual activity: 99.9%
[15]
  residual activity: 21.6%
[16]
  residual activity: 51.2%
[17]
  residual activity: 88.5%
[18]
  residual activity: 85.5%
[19]
  residual activity: 95.5%
[20]
  residual activity: 106%
[21]
  residual activity: 62.3%
[22]
  residual activity: 53.5%
[23]
  residual activity: 44%
[24]
  residual activity: 109%
[25]
  residual activity: 76%
[26]
  residual activity: 85.4%
[27]
  residual activity: 76.1%
[28]
  residual activity: 66.9%
[29]
  residual activity: 85.6%
[30]
  residual activity: 38.4%
[31]
  residual activity: 85.2%
[32]
  residual activity: 112%
[33]
  residual activity: 79.8%
[34]
  residual activity: 54.2%
[35]
  residual activity: 105%
[36]
  residual activity: 82.1%
[37]
  residual activity: 91.9%
[38]
  residual activity: 72.7%
[39]
  residual activity: 105%
[40]
  residual activity: 72.4%
[41]
  residual activity: 81.6%

## CCn1cnc2c(Nc3cccc(Cl)c3)nc(N[C@@H]3CCCC[C@@H]3N)nc21
[1]
  residual activity: 65.7%
[2]
  residual activity: 99.9%
[3]
  residual activity: 108%
[4]
  residual activity: 98.8%
[5]
  residual activity: 94%
[6]
  residual activity: 60.7%
[7]
  residual activity: 23.6%
[8]
  residual activity: 89.9%
[9]
  residual activity: 79.9%
[10]
  residual activity: 85.4%
[11]
  residual activity: 92.1%
[12]
  residual activity: 69.5%
[13]
  residual activity: 86.7%
[14]
  residual activity: 56.6%
[15]
  residual activity: 12.7%
[16]
  residual activity: 87.7%
[17]
  residual activity: 99.6%
[18]
  residual activity: 90.4%
[19]
  residual activity: 88.4%
[20]
  residual activity: 51.8%
[21]
  residual activity: 101%
[22]
  residual activity: 89.5%
[23]
  residual activity: 87.4%
[24]
  residual activity: 94.9%
[25]
  residual activity: 93.1%
[26]
  residual activity: 98.7%
[27]
  residual activity: 95.2%
[28]
  residual activity: 93.5%
[29]
  residual activity: 96.8%
[30]
  residual activity: 55.3%
[31]
  residual activity: 93.7%
[32]
  residual activity: 92.3%
[33]
  residual activity: 83.8%
[34]
  residual activity: 34.7%
[35]
  residual activity: 106%
[36]
  residual activity: 90.8%
[37]
  residual activity: 64.1%
[38]
  residual activity: 98.4%
[39]
  residual activity: 106%
[40]
  residual activity: 104%
[41]
  residual activity: 110%

## O=C1NC(=O)C(c2cn(CCCO)c3ncccc23)=C1c1cnccn1
[1]
  residual activity: 83.7%
[2]
  residual activity: 105%
[3]
  residual activity: 98.6%
[4]
  residual activity: 101%
[5]
  residual activity: 90.4%
[6]
  residual activity: 91.8%
[7]
  residual activity: 94.8%
[8]
  residual activity: 89.5%
[9]
  residual activity: 97.7%
[10]
  residual activity: 86.9%
[11]
  residual activity: 93.9%
[12]
  residual activity: 66%
[13]
  residual activity: 105%
[15]
  residual activity: 87.8%
[16]
  residual activity: 88.3%
[17]
  residual activity: 102%
[18]
  residual activity: 91.9%
[19]
  residual activity: 104%
[20]
  residual activity: 98.4%
[21]
  residual activity: 93%
[22]
  residual activity: 95.8%
[23]
  residual activity: 67.4%
[24]
  residual activity: 91%
[25]
  residual activity: 95%
[26]
  residual activity: 87.8%
[27]
  residual activity: 84.8%
[28]
  residual activity: 69.1%
[29]
  residual activity: 85.1%
[30]
  residual activity: 99.7%
[31]
  residual activity: 92.3%
[32]
  residual activity: 101%
[33]
  residual activity: 43.9%
[34]
  residual activity: 16.7%
[36]
  residual activity: 107%
[37]
  residual activity: 91.3%
[38]
  residual activity: 93.6%
[39]
  residual activity: 111%
[40]
  residual activity: 88.2%
[41]
  residual activity: 96.9%
